The target in experiment [1] is NAMPT (Homo sapiens (Human), UniProt P43490). Put plainly: Assay 1: Biochemical Inhibition Assay (NAMPT enzymatic reaction, NMN quantified by mass spectrometry).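 Further: recombinant His-tagged human NAMPT preincubated with compound 15 min, then reacted 30 min at rt with 1 µM NAM, 100 µM PRPP, 2.5 mM ATP, NMN product read by RapidFire MS, normalized to L-Cystathionine internal standard.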 The following applies: read-out: Biochemical (IC50).
Experiment [2] has as its system A2780 cells. Put plainly: Assay 2: In-Vitro Cell Proliferation Assay (A2780 cells, SRB readout, 72 hours).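 Further: viable cells counted via sulforhodamine B staining, absorbance at 570 nm, after 72 h exposure at 37 °C, DMSO 0.1% as control, media-only background subtracted.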 In kind it is cell-based. The following applies: A2780 cells, 72 hours, SRB, read-out: Cell Proliferation (IC50).

The results in this text go back to patent publication US10696692B2, “Amido-benzyl sulfone and sulfoxide derivates” (Forma TM, LLC, priority 2012, dated 2020).

Read-outs that look alike come from different tables or passages of the source.

NAMPT, sequence (P43490 whole entry): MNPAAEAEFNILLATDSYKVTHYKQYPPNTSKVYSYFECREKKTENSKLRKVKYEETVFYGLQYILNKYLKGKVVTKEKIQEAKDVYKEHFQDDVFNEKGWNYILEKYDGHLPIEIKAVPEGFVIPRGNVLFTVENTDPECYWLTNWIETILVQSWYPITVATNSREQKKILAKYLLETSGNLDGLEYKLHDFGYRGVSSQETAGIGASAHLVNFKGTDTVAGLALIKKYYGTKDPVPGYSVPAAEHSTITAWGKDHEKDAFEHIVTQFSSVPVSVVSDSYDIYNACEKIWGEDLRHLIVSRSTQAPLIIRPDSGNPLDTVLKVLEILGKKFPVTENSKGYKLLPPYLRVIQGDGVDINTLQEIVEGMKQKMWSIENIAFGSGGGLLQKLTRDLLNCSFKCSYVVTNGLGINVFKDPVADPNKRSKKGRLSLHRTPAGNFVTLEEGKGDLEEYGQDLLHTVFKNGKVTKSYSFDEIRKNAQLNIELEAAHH

As for `O=C(NCc1ccc(S(=O)(=O)C2CCN(C3CCOCC3)CC2)cc1)c1cnc2[nH]ncc2c1` [Example 206, N-[[4-[(1-tetrahydropyran-4-yl-4-piperidyl)sulfonyl]phenyl]methyl]-1H-pyrazolo[3,4-b]pyridine-5-carboxamide], the IC50 in experiment [1] was 0.0592 µM; in experiment [2] (Homo sapiens, A2780, 72 h), 0.0211 µM.
`O=C(NCc1ccc(S(=O)(=O)N2C[C@H]3C[C@@H]2C3)cc1)c1ccc2nccn2c1` [Example 159, Imidazo[1,2-a]pyridine-6-carboxylic acid 4-(2-aza-bicyclo[2.1.1]hexane-2-sulfonyl)-benzylamide]: the IC50 in experiment [1] stood at 0.012 µM; in experiment [2] (Homo sapiens, A2780, 72 h) it was 0.0133 µM.
For `O=C(NCc1ccc([S+]([O-])C2CCN(CC(F)(F)F)CC2)cc1)N1Cc2ccncc2C1` (centres unmarked) [Example 376, N-[[4-[[1-(2,2,2-tnfluoroethyl)-4-piperidyl]sulfinyl]phenyl]methyl]-1,3-dihydropyrrolo[3,4-c]pyridine-2-carboxamide], in that order: 0.00582 µM and 0.00854 µM.
Take `CC(C)CN1CCN(S(=O)(=O)c2ccc(CNC(=O)c3ccc4nccn4c3)cc2)CC1` [Example 43, Imidazo[1,2-a]pyridine-6-carboxylic acid 4-(4-isobutyl-piperazine-1-sulfonyl)-benzylamide]: the IC50 in experiment [1] came to 0.0216 µM; in experiment [2] (Homo sapiens, A2780, 72 h), 0.0072 µM.
The corresponding values for `O=C(NCc1ccc(S(=O)(=O)N2CCC[C@H](O)C2)cc1)c1cc2ccncc2o1` [Example 150, Furo[2,3-c]pyridine-2-carboxylic acid 4-((S)-3-hydroxy-piperidine-1-sulfonyl)-benzylamide] are 0.0315 µM and 0.0458 µM.
With `O=C(NCc1ccc(S(=O)(=O)N2CCC[C@@H]2CO)cc1)c1ccc2nccn2c1` [Example 106, Imidazo[1,2-a]pyridine-6-carboxylic acid 4-((R)-2-hydroxymethyl-pyrrolidine-1-sulfonyl)-benzylamide], the IC50 in experiment [1] worked out at 0.0486 µM; in experiment [2] (Homo sapiens, A2780, 72 h), 0.0577 µM.
As to `CC(=O)N(C)C1CCN(S(=O)(=O)c2ccc(CNC(=O)c3ccc4nccn4c3)cc2)C1` (racemic) [Example 101, Imidazo[1,2-a]pyridine-6-carboxylic acid 4-[3-(acetyl-methyl-amino)-pyrrolidine-1-sulfonyl]-benzylamide], the IC50 in experiment [1] was found to be 0.0203 µM; in experiment [2] (Homo sapiens, A2780, 72 h), 0.0097 µM.
In the case of `NC12CC1CN(S(=O)(=O)c1ccc(CNC(=O)c3ccc4nccn4c3)cc1)C2` (centres unmarked) [Example 320, N-[[4-[(5-amino-3-azabicyclo[3.1.0]hexan-3-yl)sulfonyl]phenyl]methyl] imidazo[1,2-a]pyridine-6-carboxamide], the IC50 in experiment [1] worked out at 0.0687 µM; in experiment [2] (Homo sapiens, A2780, 72 h), 0.0619 µM.
Consider `O=C(NCc1ccc(S(=O)(=O)N2CCCC3(CCCCN3)C2)cc1)c1ccc2nccn2c1` (centres unmarked) [Example 326, N-[[4-(1,8-diazaspiro[5.5]undecan-8-ylsulfonyl)phenyl]methyl] imidazo[1,2-a]pyridine-6-carboxamide], for which the IC50 in experiment [1] stood at 0.107 µM; in experiment [2], 0.0601 µM.
Turning to `O=C(NCc1ccc(S(=O)(=O)N2CCC(CO)CC2)cc1)c1cc2ccncc2o1` [Example 299, N-[[4-[[4-(hydroxymethyl)-1-piperidyl]sulfonyl]phenyl]methyl]furo[2,3-c]pyridine-2-carboxamide], the IC50 in experiment [1] is 0.0244 µM; in experiment [2] (Homo sapiens, A2780, 72 h), 0.0111 µM.
Regarding `O=C(NCc1ccc(S(=O)(=O)N2CCN(C3COC3)CC2)cc1)c1ccc2nccn2c1` [Example 92, Imidazo[1,2-a]pyridine-6-carboxylic acid 4-(4-oxetan-3-yl-piperazine-1-sulfonyl)-benzylamide], the IC50 in experiment [1] worked out at 0.0294 µM; in experiment [2] (Homo sapiens, A2780, 72 h), 0.0075 µM.
For the compound `C[C@@H]1CN(S(=O)(=O)c2ccc(CNC(=O)c3cc4ccncc4s3)cc2)C[C@H](C)N1` [Example 46, Thieno[2,3-c]pyridine-2-carboxylic acid 4-((3R,5S)-3,5-dimethyl-piperazine-1-sulfonyl)-benzylamide], the IC50 in experiment [1] is 0.0435 µM; in experiment [2] (Homo sapiens, A2780, 72 h), 0.0044 µM.
For `O=C(NCc1ccc(S(=O)(=O)N2CC(O)C2)cc1)c1ccc2nccn2c1` [Example 245, N-[[4-(3-hydroxyazetidin-1-yl)sulfonylphenyl]methyl] imidazo[1,2-a]pyridine-6-carboxamide], in that order: 0.0523 µM and 0.274 µM.
With `CC(C)N1CCC([S+]([O-])c2ccc(CNC(=O)c3cnc4[nH]ncc4c3)cc2)CC1` (centres unmarked) [Example 366, N-[[4-[(1-isopropyl-4-piperidyl)sulfinyl]phenyl]methyl]-1H-pyrazolo[3,4-b]pyridine-5-carboxamide], the IC50 in experiment [1] was found to be 0.029 µM; in experiment [2] (Homo sapiens, A2780, 72 h), 0.0776 µM.
As to `CC(C)CN1CCC([S+]([O-])c2ccc(CNC(=O)c3cnc4[nH]ncc4c3)cc2)CC1` (racemic) [Example 181, 1H-Pyrazolo[3,4-b]pyridine-5-carboxylic acid 4-(1-isobutyl-piperidine-4-sulfinyl)-benzylamide], the IC50 was 0.13 µM in experiment [1] and 0.023 µM in experiment [2] (Homo sapiens, A2780, 72 h).
As to `O=C(NCc1ccc(S(=O)(=O)N2CC(F)(F)C2)cc1)c1ccc2nccn2c1` [Example 239, N-[[4-(3,3-difluoroazetidin-1-yl)sulfonylphenyl]methyl] imidazo[1,2-a]pyridine-6-carboxamide], the IC50 in experiment [1] was found to be 0.0333 µM; in experiment [2] (Homo sapiens, A2780, 72 h), 0.0356 µM.
For `O=C(NCc1ccc(S(=O)(=O)N2CCC(F)(F)CC2)cc1)c1ccc2nccn2c1` [Example 112, Imidazo[1,2-a]pyridine-6-carboxylic acid 4-(4,4-difluoro-piperidine-1-sulfonyl)-benzylamide], the IC50 in experiment [1] is 0.0259 µM; in experiment [2] (Homo sapiens, A2780, 72 h) it was 0.0205 µM.
As for `CC(=O)N1CC2(C1)CN(S(=O)(=O)c1ccc(CNC(=O)c3ccc4nccn4c3)cc1)C2` [Example 259, N-[[4-[(6-acetyl-2,6-diazaspiro[3.3]heptan-2-yl)sulfonyl]phenyl]methyl] imidazo[1,2-a]pyridine-6-carboxamide], the IC50 amounted to 0.0378 µM in experiment [1] and 0.07 µM in experiment [2] (Homo sapiens, A2780, 72 h).
Consider `O=C(NCc1ccc([S+]([O-])C2CCN(CC(F)(F)F)CC2)cc1)c1cc2ccncc2o1` (centres unmarked) [Example 356, N-[[4-[[1-(2,2,2-trifluoroethyl)-4-piperidyl]sulfinyl]phenyl]methyl]furo[2,3-c]pyridine-2-carboxamide], for which the IC50 in experiment [1] was determined as 0.0135 µM; in experiment [2] (Homo sapiens, A2780, 72 h), 0.00325 µM.
With `CC(C)CN1CCC([S+]([O-])c2ccc(CNC(=O)c3cnc4nccn4c3)cc2)CC1` (centres unmarked) [Example 188, N-[[4-[(1-isobutyl-4-piperidyl)sulfinyl]phenyl]methyl]imidazo[1,2-a]pyrimidine-6-carboxamide], the IC50 in experiment [1] is 0.0077 µM; in experiment [2] (Homo sapiens, A2780, 72 h), 0.0311 µM.
In the case of `O=C(NCc1ccc(S(=O)(=O)C2CCN(CC(F)(F)F)CC2)cc1)c1cnc2[nH]ncc2c1` [Example 208, N-[[4-[[1-(2,2,2-trifluoroethyl)-4-piperidyl]sulfonyl]phenyl]methyl]-1H-pyrazolo[3,4-b]pyridine-5-carboxamide], the IC50 in experiment [1] came out at 0.0477 µM; in experiment [2] (Homo sapiens, A2780, 72 h), 0.0108 µM.
For `O=C(NCc1ccc(S(=O)(=O)N2CC3CCOC3C2)cc1)c1ccc2nccn2c1` (centres unmarked) [Example 72, Imidazo[1,2-a]pyridine-6-carboxylic acid 4-(hexahydro-furo[2,3-c]pyrrole-5-sulfonyl)-benzylamide], the IC50 in experiment [1] stood at 0.0143 µM; in experiment [2] (Homo sapiens, A2780, 72 h), 0.0057 µM.
